Patent US9962354B2, “Method and composition for bacterial or fungal suppression on skin” (priority 2009, dated 2018)

Columns and labels:
[1] = tested on: pseudomonas aeruginosa (ATCC 15442); assay: 27 hour kinetic growth assay using a redox active dye; assay type: cell-based; settings: 25 uL test material in TSB, 27 hour kinetic assay
Protocol: (§1) Conjugated linoleic acid (80%) and conjugated linoleic acid diglyceride, containing both trans and cis isomers, were used to show persisting reduction of bacterial growth over several hours. Each measure was accomplished in separate wells. Each well received a unique combination of the following, including controls. Conjugated linoleic acid 80% and conjugated linoleic acid diglyceride, 25 uL were each separately added to Trypticase Soy Broth (TSB). To each solution was added 75 uL TSB plus 50 uL staphylococcus aureus (ATCC 6366) or pseudomonas aeruginosa (ATCC 15442). This was then entered into a 27 hour kinetic assay using a redox active dye to monitor growth. Appropriate controls were simultaneously run.

[2] = tested on: staphylococcus aureus (ATCC 6366); assay: as above; assay type: cell-based; settings: 25 uL test material in TSB, 27 hour kinetic assay
Protocol: as §1

[3] = direct application of oil to skin with acne; assay type: in vivo; settings: applied twice daily directly to skin; after 24 hours
Source text: CLA free fatty acid oil was applied twice daily directly to skin with acne.

Substance | reduction in bacterial growth beginning at [1] [min] | reduction in bacterial growth sustained for [1] [h] | reduction in bacterial growth beginning at [2] [min] | reduction in bacterial growth sustained for [2] [h] | size and redness of the acne [3]
conjugated linoleic acid [conjugated linoleic free fatty acid] | 200 | 27 | 30 | 20 | substantial reduction in the size and redness of the acne
conjugated linoleic acid diglyceride [conjugated linoleic diglyceride] | 200 | 27 | 30 | 20 | 
